Results taken from patent publication US7420059B2, “HMG-CoA reductase inhibitors and method” (Bristol-Myers Squibb Company, priority 2003, dated 2008).

melting point: 184 to 186 °C
SMILES: CC(C)c1nc2c(c(-c3ccc(F)cc3)c1/C=C/[C@@H](O)C[C@@H](O)CC(=O)O)CCCN2S(C)(=O)=O [Example 22, (E)-(3R,5S)-7-[4-(4-Fluorophenyl)-2-isopropyl-8-methanesulfonyl-5,6,7,8-tetrahydro-[1,8]naphthyridin-3-yl]-3,5-dihydroxyhept-6-enoic Acid]
